Laboratory results reported in ChEMBL document CHEMBL1130061, “Discovery and biological activity of orally active peptidyl trifluoromethyl ketone inhibitors of human neutrophil elastase” (J Med Chem, 1997).
Numbered stars: 1 amine (or outer) side, 2 acyl side, 3 side chain; on linkers, the order of the positions; unused ones are H or OH. Square brackets hold non-standard residues; d marks the D form. Peptide text beside a SMILES is read from it. * marks the point of attachment. ξ: configuration not given here. 4Abz = Nc1ccc(C(=O)O)cc1; CO = O=C([*:1])[*:2]; ξV = CC(C)C(N)C(=O)O; ξP = O=C(O)C1CCCN1; CF3 = FC(F)(F)*

Columns and labels:
Neutrophil elastase = target: T1, Neutrophil elastase (Homo sapiens, UniProt P08246); test: Inhibitory activity against Human Neutrophil Elastase by HNE-catalyzed hydrolysis of MeO-Suc-Ala-Ala-Pro-Val-pNa
T1 sequence (P08246 whole entry): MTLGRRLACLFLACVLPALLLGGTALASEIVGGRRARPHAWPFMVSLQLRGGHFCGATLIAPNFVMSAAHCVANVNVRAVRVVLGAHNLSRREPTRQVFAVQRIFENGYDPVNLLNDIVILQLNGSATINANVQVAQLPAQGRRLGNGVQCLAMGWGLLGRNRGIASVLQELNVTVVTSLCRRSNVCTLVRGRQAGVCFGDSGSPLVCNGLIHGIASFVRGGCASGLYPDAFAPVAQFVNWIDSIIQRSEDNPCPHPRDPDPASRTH

Mesocricetus auratus [1] = species: Mesocricetus auratus; test: Reduction in wet lung weight relative to the body weight in hamsters
Mesocricetus auratus [2] = test: Oral administration at a dose of 37.5 mg/kg 30 min prior to HNE and reduction in the number of white blood cells was reported
Mesocricetus auratus [3] = test: Oral administration at a dose of 37.5 mg/kg 30 min prior to HNE (100 mg/hamster) and reduction in the number of white blood cells was reported

Compound | Ki (Neutrophil elastase) | Lw/Bw (Mesocricetus auratus [1]) | Reduction (Mesocricetus auratus [2]) | Reduction (Mesocricetus auratus [3])
CC(C)[C@H](NC(=O)c1ccc(O)cc1)C(=O)N1CCC[C@H]1C(=O)N[C@H](C(=O)C(F)(F)F)C(C)C | 3.9 nM | 35 | 28% | –
Cc1ccc(C(=O)N[C@H](C(=O)N2CCC[C@H]2C(=O)N[C@H](C(=O)C(F)(F)F)C(C)C)C(C)C)cc1C | 1 nM | 75 | 55% | –
CC(C)[C@H](NC(=O)C(=O)O)C(=O)N1CCC[C@H]1C(=O)N[C@H](C(=O)C(F)(F)F)C(C)C | 810 nM | 2 | 38% | –
CC(C)[C@H](NC(=O)c1ccc(O)c(O)c1)C(=O)N1CCC[C@H]1C(=O)N[C@H](C(=O)C(F)(F)F)C(C)C | 16 nM | -73 | – | -41%
CC(C)[C@H](NS(=O)(=O)C(F)(F)F)C(=O)N1CCC[C@H]1C(=O)N[C@H](C(=O)C(F)(F)F)C(C)C | 150 nM | 20 | 17% | –
CC(C)[C@H](NC(=O)c1ccc(F)cc1)C(=O)N1CCC[C@H]1C(=O)N[C@H](C(=O)C(F)(F)F)C(C)C | 2.9 nM | 44 | 22% | –
CC(C)[C@H](NC(=O)Nc1ccc(F)cc1)C(=O)N1CCC[C@H]1C(=O)N[C@H](C(=O)C(F)(F)F)C(C)C | 11 nM | -3 | 8% | –
CC(C)[C@H](NC(=O)c1ccccn1)C(=O)N1CCC[C@H]1C(=O)N[C@H](C(=O)C(F)(F)F)C(C)C | 20 nM | 8 | 44% | –
CC(C)[C@H](NS(=O)(=O)c1ccccc1)C(=O)N1CCC[C@H]1C(=O)N[C@H](C(=O)C(F)(F)F)C(C)C | 14 nM | 29 | – | -48%
CC(C)C(NC(=O)C1CCCN1C(=O)[C@@H](NC(=O)c1ccc(C(=O)NCCN(C)C)cc1)C(C)C)C(=O)C(F)(F)F (stereo not given in full) | 5.4 nM | 20 | 71% | –
CC(C)C(NC(=O)C1CCCN1C(=O)[C@@H](NS(=O)(=O)C12CC3CC(CC(C3)C1)C2)C(C)C)C(=O)C(F)(F)F (stereo not given in full) | 1.2 nM | -36 | 61% | –
CC(C)C(NC(=O)C1CCCN1C(=O)[C@@H](NC(=O)c1ccc(C(=O)NS(C)(=O)=O)cc1)C(C)C)C(=O)C(F)(F)F (stereo not given in full) | 4.2 nM | -9 | 43% | –
CC(=O)Nc1ccc(S(=O)(=O)N[C@H](C(=O)N2CCCC2C(=O)NC(C(=O)C(F)(F)F)C(C)C)C(C)C)cc1 (stereo not given in full) | 55 nM | 2 | 32% | –
CC(C)C(NC(=O)C1CCCN1C(=O)[C@@H](NS(=O)(=O)c1c(F)c(F)c(F)c(F)c1F)C(C)C)C(=O)C(F)(F)F (stereo not given in full) | 1.6 nM | -24 | 27% | –
COC(=O)c1cc(C(=O)N[C@H](C(=O)N2CCCC2C(=O)NC(C(=O)C(F)(F)F)C(C)C)C(C)C)cc(C(=O)OC)c1 (stereo not given in full) | 11 nM | 6 | 6% | –
CC(C)C(NC(=O)c1ccc(C(=O)NS(=O)(=O)c2ccc(Br)cc2)cc1)C(=O)N1CCC[C@H]1C(=O)N[C@H](C(=O)C(F)(F)F)C(C)C (stereo not given in full) | – | -0.5 | 30% | –
CC(C)C(NC(=O)C1CCCN1C(=O)[C@@H](NC(=O)/C=C/c1ccc(C(=O)O)cc1)C(C)C)C(=O)C(F)(F)F (stereo not given in full) | 1.8 nM | 13 | 68% | –
CC(C)C(NC(=O)C1CCCN1C(=O)[C@@H](NS(=O)(=O)c1ccc(Cl)cc1)C(C)C)C(=O)C(F)(F)F (stereo not given in full) | 3.3 nM | -41 | 7% | –
CSc1ccc(C(=O)N[C@H](C(=O)N2CCCC2C(=O)NC(C(=O)C(F)(F)F)C(C)C)C(C)C)cc1 (stereo not given in full) | 2.3 nM | 20 | 36% | –

Compound | Ki (Neutrophil elastase) | Lw/Bw (Mesocricetus auratus [1]) | Reduction (Mesocricetus auratus [2]) | Reduction (Mesocricetus auratus [3])
CC(C)c1cc(C(C)C)c(S(=O)(=O)N[C@H](C(=O)N2CCCC2C(=O)NC(C(=O)C(F)(F)F)C(C)C)C(C)C)c(C(C)C)c1 (stereo not given in full) | 3.2 nM | -17 | – | -186%
CC(C)C(NC(=O)C1CCCN1C(=O)[C@@H](NS(=O)(=O)c1ccc2ccccc2c1)C(C)C)C(=O)C(F)(F)F (stereo not given in full) | 2.7 nM | – | 20% | –
CCOC(=O)c1ccc(/C=C/C(=O)N[C@H](C(=O)N2CCCC2C(=O)NC(C(=O)C(F)(F)F)C(C)C)C(C)C)cc1 (stereo not given in full) | 0.43 nM | -122 | – | -48%
CC(C)C(NC(=O)C1CCCN1C(=O)[C@@H](NC(=O)c1cc2ccccc2cc1C(=O)O)C(C)C)C(=O)C(F)(F)F (stereo not given in full) | 1.7 nM | 23 | 53% | –
CC(=O)Oc1cc(OC(C)=O)cc(C(=O)N[C@H](C(=O)N2CCCC2C(=O)NC(C(=O)C(F)(F)F)C(C)C)C(C)C)c1 (stereo not given in full) | 60 nM | – | – | -12%
CC(C)C(NC(=O)C1CCCN1C(=O)[C@@H](NC(=O)c1ccc(Oc2ccccc2)cc1)C(C)C)C(=O)C(F)(F)F (stereo not given in full) | 0.41 nM | 31 | 78% | –
COc1ccc(C(=O)N[C@H](C(=O)N2CCCC2C(=O)NC(C(=O)C(F)(F)F)C(C)C)C(C)C)cc1OC (stereo not given in full) | 1.1 nM | 66 | 46% | –
CC(C)C(NC(=O)C1CCCN1C(=O)[C@@H](NC(=O)c1ccc(N(C)C)cc1)C(C)C)C(=O)C(F)(F)F (stereo not given in full) | 2.5 nM | 36 | 0% | –
CC(C)C(NC(=O)C1CCCN1C(=O)[C@@H](NC(=O)c1ccc2ccccc2c1)C(C)C)C(=O)C(F)(F)F (stereo not given in full) | 0.87 nM | 43 | 73% | –
COc1cccc(OC)c1C(=O)N[C@H](C(=O)N1CCCC1C(=O)NC(C(=O)C(F)(F)F)C(C)C)C(C)C (stereo not given in full) | 15 nM | 20 | 177% | –
COC(=O)c1ccc(C(=O)N[C@H](C(=O)N2CCCC2C(=O)NC(C(=O)C(F)(F)F)C(C)C)C(C)C)cc1 (stereo not given in full) | 1.8 nM | 49 | 56% | –
CC(C)C(NC(=O)C1CCCN1C(=O)[C@@H](NC(=O)c1ccc([N+](=O)[O-])cc1)C(C)C)C(=O)C(F)(F)F (stereo not given in full) | 1.2 nM | 54 | 4% | –
CC(C)C(NC(=O)C1CCCN1C(=O)[C@@H](NC(=O)c1ccc(S(C)(=O)=O)cc1)C(C)C)C(=O)C(F)(F)F (stereo not given in full) | 2 nM | -16 | 58% | –
CC(C)[C@H](NC(=O)C(F)(F)F)C(=O)N1CCC[C@H]1C(=O)N[C@H](C(=O)C(F)(F)F)C(C)C (HELM PEPTIDE1{[O=C(C(F)(F)F)[*:2]].V.P.V.[FC(F)(F)[*:1]]}$$$$V2.0) | 15 nM | 67 | 91% | –
CC(C)[C@H](NC(=O)OCc1ccccc1)C(=O)N1CCC[C@H]1C(=O)N[C@H](C(=O)C(F)(F)F)C(C)C (HELM PEPTIDE1{[O=C(OCc1ccccc1)[*:2]].V.P.V.[FC(F)(F)[*:1]]}$$$$V2.0) | – | 53 | 38% | –
CC(C)[C@H](NC(=O)c1cccnc1)C(=O)N1CCC[C@H]1C(=O)N[C@H](C(=O)C(F)(F)F)C(C)C (HELM PEPTIDE1{[O=C(c1cccnc1)[*:2]].V.P.V.[FC(F)(F)[*:1]]}$$$$V2.0) | 7.8 nM | -6 | 23% | –
CCCN(CC(=O)N[C@H](C(=O)N1CCC[C@H]1C(=O)N[C@H](C(=O)C(F)(F)F)C(C)C)C(C)C)C(C)=O (HELM PEPTIDE1{[ac].[CCCN(CC(=O)[*:2])[*:1]].V.P.V.[FC(F)(F)[*:1]]}$$$$V2.0) | 2 nM | 24 | 78% | –
CC(=O)N(CC(=O)N[C@H](C(=O)N1CCC[C@H]1C(=O)N[C@H](C(=O)C(F)(F)F)C(C)C)C(C)C)Cc1ccccc1 (HELM PEPTIDE1{[ac].[O=C(CN(Cc1ccccc1)[*:1])[*:2]].V.P.V.[FC(F)(F)[*:1]]}$$$$V2.0) | 0.96 nM | 20 | 36% | –
CC(C)C(NC(=O)C1CCCN1C(=O)[C@@H](NC(=O)Nc1ccc(C(=O)O)cc1)C(C)C)C(=O)C(F)(F)F (stereo not given in full) ({4Abz-CO}-Val-[ξP]-[ξV]-CF3) | 10 nM | -1 | 48% | –
